Experimental data reported in patent US20250346588A1, “IMIDAZOPYRIDINE AND OXAZOLOPYRIDINE DERIVATIVES AND ANALOGS THEREOF, METHODS OF PREPARATION THEREOF, METHODS OF HIF-1/2A PATHWAY INHIBITION, AND INDUCTION OF FERROPTOSIS” (KUDA THERAPEUTICS, INC., priority 2022, published 2025).
Read-outs that look alike come from different tables or passages of the source.

Columns and labels:
[1] = tested on: HIF-2α transcriptional activity; assay: Hypoxia-responsive element-driven luciferase (HRE-Luc) screen; format: cell-based, human; details: Homo sapiens, 786-0, 24 h, 786-0 ccRCC cells stably expressing HRE-Luc; 24 h treatment; range of IC50 values
Experimental: (§1) Screens for inhibitory activity of compounds described herein were performed using 786-0 ccRCC cells that stably express HRE-Luc: 5 copies of the hypoxia-responsive element (HRE) fused to the pGL3 luciferase reporter (Promega Corp, Madison WI). 786-0 cells are pVHL deficient and thus constitutively express HIF-2α independently of cellular oxygen tension. Since 786-0 cells lack HIF-1α, HRE-driven luciferase activity is primarily HIF-2α driven, and has been previously validated. Cells were maintained at log phase growth in […] (DMEM) with 10% FBS in a humidified incubator at 37° C. with 5% CO2. For screening assays, cells were seeded at a density of 4,000 cells in 50 μl of complete media/well in quadruplicate wells/point in a 96-well plate. After 24 h, 50 μl of a 2× concentration of test compound was added to each well. Compounds were diluted from a 5-10 mM stock in DMSO and final concentrations of DMSO in each well in controls and treated wells were kept constant at ≤0.6% DMSO. After 24 h treatment, luciferase activity was measured using the Steady-Glo Luciferase assay system (Promega Corp) according to the manufacturer's protocol. Cell viability was measured in quadruplicate parallel wells using resazurin as recommended by the manufacturer (R&D systems, Minneapolis, MN). Data for luciferase and resazurin were normalized to DMSO treated controls (defining 100%) and wells containing assay reagent but no cells (defining 0%) and graphed using the log inhibitor versus normalized response option in Graphpad Prism 9.3.1 software. Representative data determined using Steady-Glo luciferase and resazurin are shown in FIGS. 1A and 1B respectively, with error bars showing SD. Filled diamonds, empty squares and empty triangles indicate treatment with 3, 8 and 22 respectively with results for HRE-Luc shown in FIG. 1A.

ISCA2 = molecular target: T1, ISCA2 (Homo sapiens, UniProt Q86U28); assay: Thermal shift assay with recombinant ISCA2 (SYPRO Orange); format: binding
T1 construct: His6 (N); made in house; host or cells: E. coli Rosetta (DE3)
T1 sequence (Q86U28 9-154): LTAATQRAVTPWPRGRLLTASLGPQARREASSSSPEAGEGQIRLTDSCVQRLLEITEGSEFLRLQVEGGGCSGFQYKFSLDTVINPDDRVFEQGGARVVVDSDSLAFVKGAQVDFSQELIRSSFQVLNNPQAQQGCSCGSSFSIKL
Experimental: Thermal shift assays were performed by monitoring the change in protein melting temperature (Tm) in the absence or presence of test compounds, using the hydrophobic protein binding dye, SYPRO Orange (S6650, Thermo Fisher Scientific), measured using the LightCycler 480 (Roche Life Sciences, Indianapolis, IN) according to the manufacturer's protocol. Recombinant ISCA2 was produced by expressing amino acid residues 9-154 of ISCA2 (ISCA2 lacking its mitochondrial localization sequence) in the pET28 vector containing an N-terminal His6 tag in Rosetta (DE3) competent cells (Novagen, Millipore Sigma). ISCA2 production was induced by treating ISCA2 transformed log phase cells with 0.25 mM IPTG for 4 hours at 18° C. ISCA2 was purified using Ni^2+ affinity purification according to standard protocols and eluted in 50 mM Tris-C1 pH7.4, 150 mM NaCl, 5 mM DTT. Thermal shift assays were performed in 384-well plates using 1 μl of a 10× concentration of SYPRO Orange, 8 μl of ISCA2 (4 μg protein) and 1 μl of 1-2 mM stock of test compound per well. The LightCycler was used according to the following setup: LightCycler 480 Instrument Temperature Setup: First target of 20° C., with a Hold of 15 seconds; second target of 95° C., with Acquisition Mode of Continuous, and 10 acquisitions per degree c.; and third target of 20° C., with a Hold of 15 seconds. Tms were determined using Roche Protein Melting Analysis Software. Representative data are shown in FIGS. 6 and 7 using compound 1 and 26HCL at 200 and 100 µM final concentration respectively. […] These findings are supported by studies showing that re-expression of VHL (which increases ISCA2) and overexpression of ISCA2 itself, promotes the resistance of cells to the compounds (shown in FIG. 8).

IRP2 and GPX4 = assay: Western blots for cellular iron-sensing machinery (IRP2, GPX4); format: cell-based, human; details: 786-0 or RCC10 ccRCC cells, 24h, relative to GAPDH
Experimental: (§2) Western blots were performed to determine the effects of the compounds on levels of HIF-2α and other relevant proteins, whereas qPCR was performed to determine the effects of compounds on transcript levels of HIF target genes. 786-0 or RCC10 cells were plated at 1×10E5 cells/well in 2 ml DMEM with 10% FBS/well in 6-well tissue culture plates. Cells were allowed to adhere overnight in a humidified incubator at 37° C. with 5% CO2, after which the appropriate concentrations of compounds in DMSO were added. DMSO concentrations were kept constant in all wells. After 24 h exposure to the compounds, cells were lysed and subjected to western blotting according to standard protocols. Antibodies for HIF-1α and HIF-2α and GAPDH were purchased from Cell Signaling Technology (Danvers, MA), whereas antibodies to IRP2 and pVHL were from Santa Cruz Biotechnology (Dallas, TX), and GPX4 antibody was from R&D Systems, Inc (Minneapolis, MN). Representative data in FIG. 2 show a dose-dependent effect of compounds in decreasing HIF-1/2α. Compounds also impact cellular iron sensing given by increased IRP2, which taken together indicate that cells sense decreased amounts of available iron, which triggers the iron starvation response initiated by IRP2 stabilization. Representative data shown in FIG. 3D show a dose dependent effect of the compounds on GPX4, which may indicate decreased resistance to ferroptosis. […] The data also show increased expression of ISCA2 with pVHL re-expression.

HIF-1α and HIF-2α = assay: Western blots for HIF-1α and HIF-2α in ccRCC cells; format: cell-based, human; details: 786-0 or RCC10 ccRCC cells, 24h, relative to GAPDH
Experimental: as §2

786-0 cells = assay: Resazurin cell viability assay, with or without DFO and other inhibitors; format: cell-based, human; details: for IC50: Homo sapiens, 24 h, resazurin
Experimental: as §1
In view of the increased cellular iron concentrations induced by the compounds described herein, the involvement of iron in mediating cell death was determined. Cell viability assays were performed as described in Example 2 using resazurin as a cell viability readout and performed in the absence or presence of 100 μM of the iron chelator, DFO (D9533, MilliporeSigma, St Louis, MO). […] Viability IC50 values are shown in brackets.

786-0 ccRCC cells = assay: ICP-MS of cellular iron, zinc and copper; format: cell-based, human; details: 786-0 cells, 24h
Experimental: These studies were performed to determine the content of iron and other transition metals in cells after exposure the compounds described herein. 786-0 cells were seeded at 1.5 million cells/flask in T75 cm^2 flasks in DMEM+10% FBS, and allowed to adhere overnight. Cells were then treated with indicated concentrations of compounds in DMSO or DMSO alone (vehicle) for a further 24 h, after which cells were detached by trypsinization, counted, washed twice in phosphate-buffered saline (PBS) and pelleted. Experiments were performed using three replicate T75 cm^2 flasks per condition. A 5:1 mixture of nitric acid (OPTIMA Grade, 70%, Fisher Scientific) and ultrapure hydrogen peroxide (ULTREX II, 30%, Fisher Scientific) was added to cell pellets. This mixture was allowed to digest overnight, heated until dry, and resuspended in 2% nitric acid for analysis using an Agilent 7900 ICP-MS (Agilent Technologies, Santa Clara, CA). Calibration standard solutions for determination of Fe were prepared from Agilent multi-element calibration standard-2A. An Agilent Environmental Calibration Standard was used as an independent control. PBS-only control digestions were used to measure background. Metal readings were normalized to cell number. Data obtained from these studies for three replicate readings (with SEM) are shown in FIG. 3, which show an increase in cellular iron (Fe) content after treatment with indicated compounds.

| IC50 [1] [µM] | SMILES | effect on IRP2 protein (Western blot) (IRP2 and GPX4) | effect on HIF-1α and HIF-2α protein (Western blot) (HIF-1α and HIF-2α) | cellular iron (Fe), zinc (Zn) and copper (Cu) content (786-0 ccRCC cells) | also measured |
| --- | --- | --- | --- | --- | --- |
| < 10 | COc1cccc2sc(Nc3nnc(-c4ccc(F)cc4)o3)nc12 [Compound 1, 5-(4-fluorophenyl)-N-(4-methoxybenzo[d]thiazol-2-yl)-1,3,4-oxadiazol-2-amine] | increases IRP2 | decreases HIF-1α and HIF-2α | – | Tm of ISCA2 in compound-treated wells (ISCA2; 200 μM compound, control wells 53.21±0.36): 55.63±0.26 °C; change in melting temperature of ISCA2 (in words) (ISCA2; compound 1 and 26HCL at 200 and 100 μM final concentration respectively): significant change in melting temperature of ISCA2 |
| < 10 | COc1ccc(-c2nnc(Nc3nc4c(OC)nccc4[nH]3)o2)cc1 [Compound 22, N-(4-methoxy-1H-imidazo[4,5-c]73yridine-2-yl)-5-(4-methoxyphenyl)-1,3,4-oxadiazol-2-amine] | – | – | increases the content of iron, zinc and copper in cells | IC50 (786-0 cells; compound alone, read-out: cell viability IC50): 11.4 µM; IC50 (786-0 cells; with DFO 100 μM, read-out: cell viability IC50 in the presence of DFO): 83.6 µM |
| < 10 | COc1nccc2[nH]c(Nc3nnc(-c4ccc(F)cc4)o3)nc12 [Compound 3, 5-(4-Fluorophenyl)-N-(4-methoxy-1H-imidazo[4,5-c]pyridin-2-yl)-1,3,4-oxadiazol-2-amine] | increases IRP2 | decreases HIF-1α and HIF-2α | increases the content of iron, zinc and copper in cells | effect of DFO co-treatment on compound-mediated loss of cell viability (786-0 cells; DFO 100 μM, FIG. 4B): protective effects of DFO |
| < 10 | COc1cccc2nc(Nc3nnc(N4CCC(OC)CC4)o3)[nH]c12 [Compound 71, N-(7-methoxy-1H-benzo[d]imidazol-2-yl)-5-(4-methoxypiperidin-1-yl)-1,3,4-oxadiazol-2-amine] | – | – | – | – |
| 50 to 100 | COc1cccc2[nH]c(Nc3nnc(-c4ccc5c(c4)OCCO5)o3)nc12 [Compound 86, 5-(2,3-dihydrobenzo[b][1,4]dioxin-6-yl)-N-(4-methoxy-1H-benzo[d]imidazol-2-yl)-1,3,4-oxadiazol-2-amine] | – | – | – | – |
| 10 to 50 | COc1cccc2nc(Nc3nnc(C4CCN(C)CC4)o3)[nH]c12 [Compound 74, N-(7-methoxy-1H-benzo[d]imidazol-2-yl)-5-(1-methylpiperidin-4-yl)-1,3,4-oxadiazol-2-amine] | – | – | – | – |
